Source: paper PMC8146289, “Tissue Distribution of Oleocanthal and Its Metabolites after Oral Ingestion in Rats” (Antioxidants, 2021)

Assays:
[1] = Tissue distribution of OLC and its metabolites in rats after oral gavage of OLC-enriched refined olive oil (LC-ESI-LTQ-Orbitrap-MS); type: in vivo, Male Sprague Dawley rats; settings: for plasma and tissues in which the compound was detected: liver, kidney, spleen, lungs, heart, brain, thyroid, skin, 1, 2, 4.5 h after oral ROO with OLC; for decrease of OLC concentration in the intestine / decrease of OLC concentration in the stomach: relative to the maximum at 1 h; for decrease of OLC concentration in the stomach: stomach samples
Experimental: The studies were conducted following a protocol approved by the Animal Experimentation Ethics Committee of the University of Barcelona, Spain (trial no. CEEA 124/16) and Generalitat de Catalunya (no. 6435). Male Sprague Dawley rats (body weight 249 ± 8 g) were purchased from Envigo RMS Spain S.L. (Sant Feliu de Codines, Barcelona, Spain). The animals were acclimatized in animal housing in an air-conditioned room at 22 ± 2 °C under a 12 h/12 h cycle of light and darkness and given free access to a commercial diet (Teklad 2014, Envigo RMS Spain S.L.) and water for at least 10 days before the study. The rats were fasted for over 12 h before the experiments but were allowed free access to water.
Before the distribution experiment, the ROO (vehicle) was analyzed by LC-ESI-LTQ-Orbitrap-MS to make sure it was free of phenolic compounds. The liquid–liquid extraction of phenolic compounds of ROO was performed following the previously described procedures. The chromatographic and mass spectrometer conditions were the same as those used for the identification of metabolites (Section 2.3). After verifying that the ROO was free of phenols, OLC was added to obtain a final concentration of 0.3 mg/mL. The OLC concentration was chosen while taking into account both the OLC concentration in commercial EVOO (~300 mg/kg) and the daily ingestion of EVOO recommended by the European Food Safety Authority of at least 5 mg of hydroxytyrosol and its derivatives per 20 g of olive oil.
The rats were divided into four groups—a control group (no administration) and three dosed groups—to study the distribution of OLC at three different time points: 1, 2 and 4.5 h post-administration. On treatment day, the rats received the ROO containing OLC by oral gavage (2.5 mL/300 g body weight). The volume for gavage administration was established following a good practice guide for substance administration and was lower than the maximum volume of lipid vehicles per kg of rat body weight that prevented elevated plasma corticosterone levels.
The rats were anesthetized with isoflurane (IsoFloR, Veterinaria Esteve, Barcelona, Spain) and euthanized by exsanguination via cardiac puncture at 1, 2 or 4.5 h after ROO ingestion. The control group was maintained under fasting conditions without olive oil ingestion and then similarly euthanized. The blood was collected in EDTA tubes, and plasma samples were obtained by centrifugation (3000× g for 10 min at 4 °C) and stored at −80 °C until analysis. Different tissues and organs (heart, liver, spleen, lungs, kidney, brain, thyroid, stomach, small intestine and skin) were removed from the rats and placed in pre-weighed tubes. The small intestine samples consisted of a pool of duodenum, jejunum and ileum segments, but the main region used was the jejunum. The procedure was to locate the plica duodenocolica and, from there up to about 5 cm of the intestine before reaching the cecum, to remove it from the animal. The collected tissues were washed with physiological serum at 37 °C and placed between absorbent paper to remove the rest of the serum. In the case of the intestine, the luminal contents were first removed by applying pressure with the index finger and thumb, and then the lumen was washed by perfusing with the physiological serum at 37 °C. It was then placed between absorbent paper to remove the remains of the washings. In order to avoid compound oxidation, the collected tissues were kept on ice at all times. Finally, the samples were weighed and stored at −80 °C until analysis. For each group, four animals were used.
The tissues were homogenized with a small tissue disruptor (T 10 basic ULTRA-TURRAX®, IKA laboratory technology, Staufen Germany) in a 1:1 ratio (w/v) with water:ACN (1:1 (v/v) with 0.1% ascorbic acid). The samples were sonicated for 5 min in an ice bath and shaken for 1 min (Vortex-Genie 2). Each homogenate was centrifuged for 10 min (11,000× g at 4 °C). […]

[2] = design: method as in doi:10.1016/j.foodchem.2009.07.017; settings: cited from earlier work
[3] = design: method as in PMID 33348608; settings: in vivo, rats; cited from earlier work
[4] = plasma, stomach, small intestine

| time of Cmax (highest concentration among the three sample times 1, 2, 4.5 h) ([1]; small intestine) [h] | time of Cmax (highest concentration among the three sample times 1, 2, 4.5 h) ([1]; stomach) [h] | detection in plasma ([1]; plasma) | decrease of OLC concentration in the intestine ([1]; small intestine, 2 h post-ingestion) [%] | decrease of OLC concentration in the intestine ([1]; small intestine, 4.5 h post-ingestion) [%] | decrease of OLC concentration in the stomach ([1]; 2 h post-ingestion, ROO with 0.3 mg/mL OLC by oral gavage 2.5 mL/300 g body weight) [%] | decrease of OLC concentration in the stomach ([1]; 4.5 h post-ingestion) [%] | SMILES | plasma and tissues in which the compound was detected [1, 4] | concentration in the aqueous phase (partition between the oily and aqueous phase) ([2]; digestion of dietary lipids, lipid–water emulsion) [%] | stability in the gastric phase ([2]; in vitro digestion study) | intestinal absorption [3] [%] |
| --- | --- | --- | --- | --- | --- | --- | --- | --- | --- | --- | --- |
| 1 | 1 | – | – | – | – | – | OCCc1ccc(O)cc1 [TY, tyrosol] | only detected in the stomach and intestinal samples | – | – | – |
| 1 | 1 | not found in the plasma | 16 | 33 | 36 | 74 | C/C=C(/C=O)[C@@H](CC=O)CC(=O)OCCc1ccc(O)cc1 [OLC, oleocanthal] | only detected in the stomach and small intestine samples | 68.7 | good OLC stability in the gastric phase | 16 |
